One data set in a line: Toxicity. The conditions noted are these: in words.
The test system of data set [1] is Bac. megaterium NRRL B-938. Description: Minimum inhibitory concentration by the broth dilution method. The format is cell-based. The conditions noted are these: Priestia megaterium, NRRLB938; Bac. megaterium NRRL B-938, broth dilution; read-out: Minimum inhibitory concentration (MIC). From the text:
(§1) (1) MA 144-M1 and MA 144-M2 have antimicrobial activity against various kinds of microorganisms.
(In general: Broth dilution looks for growth in wells or tubes with falling amounts of substance.)

The test system of a further data set is Sarcina lutea ATCC 341. Described as above. It is filed as cell-based. Conditions: Micrococcus luteus, ATCC341; Sarcina lutea ATCC 341, broth dilution; read-out: Minimum inhibitory concentration (MIC).
Source text: as §1

The next data set concerns Bac. cereus ATCC 9634. Described as above. The conditions noted are these: Bacillus cereus, ATCC9634; Bac. cereus ATCC 9634, broth dilution; read-out: Minimum inhibitory concentration (MIC). The format is cell-based.
Source text: as §1

A further data set concerns Strept. pyogenes NY 5. The description is as above. The format is cell-based. Conditions: Streptococcus pyogenes, NY5; Strept. pyogenes NY 5, broth dilution; read-out: Minimum inhibitory concentration (MIC).
Source text: as §1

The test system of data set [2] is Mycobact. smegmatis ATCC 607. Described as above. The format is cell-based. The conditions noted are these: Mycobact. smegmatis ATCC 607, broth dilution; read-out: Minimum inhibitory concentration (MIC).
Source text: as §1

The subject of a further data set is Can. albicans IAM 4905. Described as above. Conditions: Candida albicans, IAM4905; Can. albicans IAM 4905, broth dilution; read-out: Minimum inhibitory concentration (MIC). It is filed as cell-based.
Source text: as §1

The test system of another data set is Cory. bovis. The data set is described as above. It is filed as cell-based. Conditions: Corynebacterium bovis; Cory. bovis, broth dilution; read-out: Minimum inhibitory concentration (MIC).
Source text: as §1

The next data set deals with Staph. aureus FDA 209P. Described as above. It is filed as cell-based. The conditions noted are these: Staphylococcus aureus, FDA209P; Staph. aureus FDA 209P, broth dilution; read-out: Minimum inhibitory concentration (MIC).
Source text: as §1

Another data set concerns Staph. aureus Smith. The description is as above. It is filed as cell-based. Conditions: Staphylococcus aureus; Staph. aureus Smith, broth dilution; read-out: Minimum inhibitory concentration (MIC).
Source text: as §1

The test system of data set [3] is Ps. fluorescens NIH JB-254. Described as above. It is filed as cell-based. Conditions: Pseudomonas fluorescens, NIHJB254; Ps. fluorescens NIH JB-254, broth dilution; read-out: Minimum inhibitory concentration (MIC).
Source text: as §1

For a further data set, the system named is Proteus morganii. The data set is described as above. It is filed as cell-based. The conditions noted are these: Morganella morganii; Proteus morganii (the Institute for Infectious Diseases), broth dilution; read-out: Minimum inhibitory concentration (MIC).
Source text: as §1

The next data set deals with Can. tropicalis IAM 4942. The data set is described as above. It is filed as cell-based. Conditions: Candida tropicalis, IAM4942; Can. tropicalis IAM 4942, broth dilution; read-out: Minimum inhibitory concentration (MIC).
Source text: as §1

A further data set has as its system Bac. subtilis ATCC 6633. Described as above. The format is cell-based. The conditions noted are these: Bacillus subtilis, ATCC6633; Bac. subtilis ATCC 6633, broth dilution; read-out: Minimum inhibitory concentration (MIC).
Source text: as §1

The test system of a further data set is Mic. flavus. The data set is described as above. Conditions: Micrococcus flavus; Mic. flavus, broth dilution; read-out: Minimum inhibitory concentration (MIC). It is filed as cell-based.
Source text: as §1

Data set [4] can be described thus: in vivo. The conditions noted are these: Mouse.
The test system of a further data set is L1210. Description: Therapeutic effectiveness on L1210-bearing mice. It is filed as in vivo. Conditions: intraperitoneally, day 0 to day 10, CDF1-L1210. How it is done:
(a) Therapeutic effectiveness on L1210-bearing mice
Drug was administered intraperitoneally

In data set [5] the test system is L1210 cells. The data set can be described thus: RNA synthesis in cultured L1210 cells. The format is cell-based, mice. The conditions noted are these: L1210 cells, in words. On the procedure:
In this experiment, L1210 cells were inoculated in RPMI 1640 medium (Nissui, Roswell Park Memorial Institute 1640) containing 10% calf serum and cultivated at 37° C. for 3 days in a CO2 incubator, and MA 144-M1, MA 144-M2 and ^14 C-precursor were added at various concentrations. Effects on the synthesis of protein, RNA and DNA were indicated by the 50% inhibition concentration (μg./ml.) as shown in the following table.

Another data set concerns P388. Description: Therapeutic effectiveness on P388-bearing mice. The format is in vivo. The conditions noted are these: intraperitoneally, day 1 to day 9, CDF1-P388. How it is done: (b) Therapeutic effectiveness on P388-bearing mice
Drug was administered intraperitonally

The subject of the next data set is Sarcoma 180. Description: Therapeutic effectiveness on Sarcoma 180 solid tumor. The format is in vivo, dd mice. The conditions noted are these: intraperitoneally, day 1 to day 10; for Weight of tumor: control 1.68. How it is done: (c) Therapeutic effectiveness on Sarcoma 180 solid tumor
dd mice were inoculated with 2×10^6 cells of Sarcoma 180, and drug was administered intraperitoneally from day 1 to day 10.

A short description of data set [6]: in vivo. Conditions: Rat.
The nature of another data set: Antitumor activity. The format is in vivo. The conditions noted are these: in words.
The test system of the next data set is gram-positive bacteria. The data set can be described thus: Antimicrobial activity against gram-positive bacteria. The format is cell-based. The conditions noted are these: in words.
Source text: as §1

For data set [7], the system named is L1210 cells. The data set can be described thus: Cytotoxicity: growth of cultured L1210 cells. The format is cell-based, mice.
A short description of data set [8]: Basicity and lipophilicity.

Values after ≈ are worked out from the molar mass of the structure shown. Where a name gives a salt, the structure may show the parent alone.

A word on the LD50: it is the dose at which mortality reaches 50%. High values mean lower toxicity, low ones greater toxicity. For the molecule `CCC1(O)CC(OC2CC(N(C)C)C(OC3CC(O)C(OC4CCC(O)C(C)O4)C(C)O3)C(C)O2)c2c(cc3c(c2O)C(=O)c2c(O)ccc(O)c2C3=O)C1C(=O)OC` (centres unmarked) [MA 144-M2], the toxicity result in “Toxicity” is recorded as “low toxicity”. In addition, the MIC was 0.78 µg/mL (≈ 0.94 µM) in [1]; 0.05 µg/mL (≈ 0.0602 µM) in the data set on Sarcina lutea ATCC 341; 0.05 µg/mL (≈ 0.0602 µM) in the data set on Bac. cereus ATCC 9634; 0.63 µg/mL (≈ 0.759 µM) with Strept. pyogenes NY 5; 1.25 µg/mL (≈ 1.51 µM) in data set [2]; 50 µg/mL (≈ 60.2 µM) in the data set on Can. albicans IAM 4905. The MIC is 0.1 µg/mL (≈ 0.12 µM) with Cory. bovis; 0.78 µg/mL (≈ 0.94 µM) in the data set with Staph. aureus FDA 209P; 0.1 µg/mL (≈ 0.12 µM) with Staph. aureus Smith; over 100 µg/mL in [3]; over 100 µg/mL with Proteus morganii; 100 µg/mL (≈ 120 µM) with Can. tropicalis IAM 4942. Also, the MIC with Bac. subtilis ATCC 6633 is 0.05 µg/mL (≈ 0.0602 µM); with Mic. flavus, 0.2 µg/mL (≈ 0.241 µM). The LD50 in the data set “in vivo [4]” (ip) is 12.5 mg/kg; in “in vivo [4]” (iv), 12 to 20 mg/kg; in the data set “in vivo [6]” (ip), 10 to 15 mg/kg; in “in vivo [6]” (iv), 10 to 15 mg/kg. Besides, the “Prolongation of the survival time” value in the data set on L1210 (0.156 mg/kg/day) stood at 116%; with L1210 (0.313 mg/kg/day), 144%; in the data set with L1210 (0.625 mg/kg/day) it was 192%; with L1210 (1.25 mg/kg/day) it was 200%; in the data set on L1210 (2.5 mg/kg/day) it was 85%; in the data set on L1210 (5 mg/kg/day), 46%. Further, the “Prolongation of the survival time” value came out at 125% in the data set on P388 (0.313 mg/kg/day); 148% with P388 (0.625 mg/kg/day); 206% in the data set with P388 (1.25 mg/kg/day); 83% with P388 (2.5 mg/kg/day); 57% in the data set on P388 (5 mg/kg/day). In addition, in the data set with L1210 cells [5], the “inhibition of RNA synthesis” value is reported as “completely inhibited RNA synthesis”. For the same molecule, the “% Inhibition of tumor growth” value came to 16% in the data set with Sarcoma 180 (0.3 mg/kg/day), 46.5% in the data set with Sarcoma 180 (0.6 mg/kg/day), 76.8% in the data set on Sarcoma 180 (1.25 mg/kg/day) and 83.3% in the data set with Sarcoma 180 (2.5 mg/kg/day). Further, the Weight of tumor with Sarcoma 180 (0.3 mg/kg/day) is on record as 1.41 g; in the data set with Sarcoma 180 (0.6 mg/kg/day), 0.90 g; in the data set on Sarcoma 180 (1.25 mg/kg/day), 0.39 g; in the data set on Sarcoma 180 (2.5 mg/kg/day), 0.28 g; in the data set with Sarcoma 180 (5 mg/kg/day) it was “toxic”. The antitumor activity entry in the data set “Antitumor activity” is recorded as “marked antitumor activity”. Further, the “antimicrobial activity against gram-positive bacteria” value in the data set with gram-positive bacteria is reported as “show antimicrobial activity against gram-positive bacteria”. Moreover, the IC50 with L1210 cells [7] (Mus musculus, 72 h, cultured L1210 cells, 37° C., 3 days, read-out: ID50, Growth) was determined as 0.05 µg/mL (≈ 0.0602 µM). For the same molecule, the “inhibition of the growth of cultured L1210 cells” value in the data set on L1210 cells [7] (at the low concentration, in words) is “inhibited markedly”. Moreover, in [8], the basicity result is “Weakly basic”.

`CCC1(O)CC(OC2CC(N(C)C)C(OC3CC(O)C(OC4CCC(O)C(C)O4)C(C)O3)C(C)O2)c2c(cc3c(c2O)C(=O)c2c(O)cccc2C3=O)C1C(=O)OC` (centres unmarked) [MA 144-M1 hydrochloride salt]: in “Solubility”, the “solubility: slightly soluble in” value is “slightly soluble in acetone and ethyl acetate”; the “solubility: soluble in” value was “soluble in water, methanol and chloroform”.
